Assay [1] deals with HCT116 cells. The experiment in a line: Assay 3: HCT116 (Kras) GI50 assay (Cell Titer-Glo). Type of assay: cell-based. The conditions noted are these: Homo sapiens, HCT-116, 72 hours. The protocol: Alternatively, the following procedure can be used to measure cell-based activity. Test compounds were dissolved in DMSO in 10 mM stock. Cell Titer-Glo® 2.0 Luminescent cell viability assay reagent was purchased from Promega (Madison, WI). A375 and HCT116 cell lines were purchased from American Type Culture Collection (Manassas, VA). For A375 cells, cell culture media was DMEM+10% FBS. For HCT116 cells, cell culture media was McCoy's 5A+10% FBS. All media were supplemented with 100 μg/mL of penicillin, and 100 μg/mL of streptomycin. Cultures were maintained at 37° C. in a humidified atmosphere of 5% CO2 and 95% air.
Test compounds were diluted in DMSO solution with 10-dose and 3-fold dilutions in a source plate starting at 10 mM. 25 nL of each test compound was delivered from the source plate to each well of the 384-well cell culture plates (T=Final) by Echo 550. 25 μL of culture medium containing 2000 of A375 or HCT116 cells was added to each of the wells in duplicates of the cell culture plates (T=0 and T=Final). 25 μL of Cell Titer Glo 2.0 reagent was added to each well of cell culture plate (T=0). The contents were mixed on an orbital shaker for 2 min and incubated at room temperature for 15 min to stabilize luminescent signal. Luminescence was recorded by Envision 2104 Multilabel Reader (PerkinElmer, Santa Clara, CA). The number of viable cells in culture was determined based on quantitation of the ATP present in each culture well. The cells in cell culture plate (T=Final) were incubated with the compounds at 37° C., 5% CO2 for 72 hours. 25 μL of Cell Titer Glo 2.0 reagent was added to each well. The contents were mixed on an orbital shaker for 2 min and incubated at room temperature for 15 min to stabilize luminescent signal. Luminescence was recorded by Envision 2104 Multilabel Reader (PerkinElmer, Santa Clara, CA). The number of viable cells in culture was determined based on quantitation of the ATP present in each culture well. The GI50 curves were plotted using the GraphPad Prism 4 program based on a sigmoidal dose-response equation Y=Bottom+(Top-Bottom)/(1+10^((Log EC50−X)*HillSlope)). All parameters in the equation were calculated by GraphPad Prism 4 program. […] Accordingly, GI50 is the value of 10^X, where X was calculated by the Curve Fitting Equation when Y=50 using Excel.
Assay 3 is the HCT116 (Kras) GI50 (nM) assay as described in Example 39. A3 indicates an IC50 of less than or equal to 5 μM, and B3 indicates an IC50 of greater than 5 μM and less than or equal to 10 μM.

In assay [2] the test system is pERK in human cutaneous neurofibroma explants. The experiment in a line: Human cutaneous neurofibroma explant pERK suppression (Western blot). Type of assay: cell-based. As to the method: Explant Protocol: Human cutaneous neurofibroma explant samples were collected in DMEM/F-12 (Thermo Fisher, Cat #11320033) supplemented with 1×B27 supplement (Thermo Fisher, Cat #17504044), 2.5 μg/ml of Amphotericin B (Thermo Fisher, Cat #15290018), and 50 units/ml of Penicillin-50 μg/ml of Streptomycin (Thermo Fisher, Cat #15070063) and incubated in the same medium for subsequent treatment. The specimen was cut into small cubes containing both the epidermis and dermis. The tissues were partially submerged in the medium in 384-well plate with the epidermis exposed to the air.
The tissues were fully submerged in the medium in 48-well plate and 5 μl of compounds dissolved in DMSO were added to 200 μl of the medium in each well. After 4 h incubation at 37° C. and 5% CO2, the tissues were harvested and half of the specimen was flash frozen in liquid nitrogen for Western Blot analysis. The other half of the specimen was fixed for 24 hours in 10% formalin and then transferred to 70% ethanol for […].
Skin samples were thawed on ice and weighed. 10 volume (10 μl for each mg of tissue) of lysis buffer (RIPA buffer+0.5 mM EDTA+1×Halt protease and phosphatase inhibitor cocktail) was then added to each sample. […]
Western Blot analysis: The lysate was thawed on ice and protein concentration was determined by the BCA protein assay kit using bovine serum albumin (BSA) as standards. […]

Regarding `O=C1CCCc2c1sc(Nc1ccc(I)cc1F)c2C(=O)NOCCO` [Compound 1.029, 2-((2-Fluoro-4-iodophenyl)amino)-N-(2-hydroxyethoxy)-7-oxo-4,5,6,7-tetrahydrobenzo[b]thiophene-3-carboxamide], the GI50 in assay [1] was ≤ 5 µM. Further, the “suppression of pERK in human cutaneous neurofibroma (cNF) explants (FIG. 5)” value in assay [2] (concentration of 500 nM) is “suppression of pERK”. In assay [2] (treatment for 4 hours at 5 nM, 50 nM, and 500 nM), the “suppression of pERK in human cutaneous neurofibroma (cNF) explants (FIG. 4)” value was “suppression of pERK”.

Source of the values: patent US12466818B2, “Thienyl-aniline compounds for treatment of dermal disorders” (NFlection Therapeutics, Inc., priority 2018, dated 2025).
